Measured values from ChEMBL document CHEMBL5500389, “Discovery of the Selective and Orally Available Galectin-1 Inhibitor GB1908 as a Potential Treatment for Lung Cancer” (J Med Chem, 2024).
One block for each compound: values may come before it. Activity calls are given as the source filed them. No cut-off for these calls is given here.

Columns and labels:
[1] = Efflux ratio of apparent permeability across apical to basal side over basal to apical side in human Caco-2 cells at 10 uM incubated for 90 mins by LC-MS/MS analysis
[2] = Apparent permeability across basal to apical side in human Caco-2 cells at 10 uM incubated for 90 mins by LC-MS/MS analysis
[3] = physchem; details: octanol/potassium phosphate buffer, pH 7.4
[4] = molecular target: T1, Galectin-1 (Homo sapiens, UniProt P09382); assay: Binding affinity to human galectin-1 assessed as dissociation constant by fluorescein probe based fluorescence polarization assay
[5] = Apparent permeability across apical to basal side in human Caco-2 cells at 10 uM incubated for 90 mins by LC-MS/MS analysis
[6] = Stability in mouse hepatocytes assessed as hepatic intrinsic clearance at 2 uM measured per million cells for 15 to 120 mins by LC-MS/MS analysis; assay type: ADME, cell-based, Hepatocyte; details: time 15-120 min, read-out: CLH
[7] = molecular target: T2, Galectin-1 (Mus musculus, UniProt P16045); assay: Binding affinity to mouse galectin-1 assessed as dissociation constant by fluorescein probe based fluorescence polarization assay
[8] = Stability in human hepatocytes assessed as hepatic intrinsic clearance at 2 uM measured per million cells for 15 to 120 mins by LC-MS/MS analysis; assay type: ADME, cell-based, Hepatocyte; details: time 15-120 min, read-out: CLH
[9] = molecular target: T1, Galectin-1; assay: Binding affinity to human galectin-1 assessed as dissociation constant by fluorescence polarization assay
[10] = molecular target: T2, Galectin-1; assay: Binding affinity to mouse galectin-1 assessed as dissociation constant by competitive fluorescence polarization assay
[11] = system: A549; assay: Cytotoxicity against human A549 cells assessed as reduction in cell viability at >90 uM by MTT assay relative to control; assay type: functional
[12] = molecular target: T3, Galectin-9 (Homo sapiens, UniProt O00182); assay: Inhibition of C-terminal human galectin-9 by competitive fluorescence polarization assay
[13] = Volume of distribution at steady state in C57BL/6 mouse at 1 mg/kg, iv measured for 24 hrs by HPLC analysis; assay type: ADME, organism-based; details: in vivo, read-out: Vdss
[14] = molecular target: T4, Galectin-3 (Homo sapiens, UniProt P17931); assay: Inhibition of human galectin-3 by competitive fluorescence polarization assay
[15] = system: Lewis lung carcinoma; assay: Antitumor activity against mouse LL2 cells allografted in syngeneic mouse C57BL/6N assessed as reduction in tumor volume at 30 mg/kg, po bid administered via gavage measured after 10 days; assay type: functional, organism-based; details: time 10.0 day
[16] = molecular target: T2, Galectin-1; assay: Binding affinity to CM3 chip-immobilized full-length mouse galectin-1 assessed as dissociation constant by SPR analysis
[17] = molecular target: T5, Galectin-4 (Homo sapiens, UniProt P56470); assay: Inhibition of C-terminal human galectin-4 by competitive fluorescence polarization assay
T5 sequence (P56470 whole entry): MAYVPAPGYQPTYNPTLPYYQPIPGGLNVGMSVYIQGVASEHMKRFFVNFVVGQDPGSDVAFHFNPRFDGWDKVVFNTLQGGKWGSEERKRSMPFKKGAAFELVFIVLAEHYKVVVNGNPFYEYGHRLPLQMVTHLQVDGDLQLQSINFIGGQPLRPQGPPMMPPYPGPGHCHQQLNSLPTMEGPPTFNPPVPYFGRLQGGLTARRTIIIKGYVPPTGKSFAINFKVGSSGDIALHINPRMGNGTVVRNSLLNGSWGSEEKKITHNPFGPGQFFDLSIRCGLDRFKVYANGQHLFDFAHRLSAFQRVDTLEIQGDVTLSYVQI

[18] = Cmax in C57BL/6 mouse at 30 mg/kg, po measured for 24 hrs by HPLC analysis; assay type: ADME, organism-based; details: in vivo
[19] = molecular target: T3, Galectin-9; assay: Inhibition of N-terminal human galectin-9 by competitive fluorescence polarization assay
[20] = molecular target: T1, Galectin-1; assay: Binding affinity to CM3 chip-immobilized full-length human galectin-1 assessed as dissociation constant by SPR analysis
[21] = molecular target: T4, Galectin-3; assay: Binding affinity to CM3 chip-immobilized full-length human galectin-3 assessed as dissociation constant by SPR analysis
[22] = system: Lewis lung carcinoma; assay: Antitumor activity against mouse LL2 cells allografted in syngeneic mouse C57BL/6N assessed as inhibition of tumor growth at 30 mg/kg, po bid administered via gavage measured for 3 to 21 days; assay type: functional, organism-based; details: time 3-21 day
[23] = molecular target: T6, Galectin-8 (Homo sapiens, UniProt O00214); assay: Inhibition of N-terminal human galectin-8 by competitive fluorescence polarization assay
T6 sequence (O00214 whole entry): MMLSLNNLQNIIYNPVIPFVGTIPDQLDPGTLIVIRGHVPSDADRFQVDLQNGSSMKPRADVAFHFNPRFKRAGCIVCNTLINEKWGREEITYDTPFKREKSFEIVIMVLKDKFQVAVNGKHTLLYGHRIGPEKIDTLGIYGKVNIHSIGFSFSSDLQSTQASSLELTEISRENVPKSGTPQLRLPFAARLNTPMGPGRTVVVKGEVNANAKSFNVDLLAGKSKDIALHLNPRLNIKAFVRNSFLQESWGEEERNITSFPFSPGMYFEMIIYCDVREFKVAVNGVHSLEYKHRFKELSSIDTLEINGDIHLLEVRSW

[24] = molecular target: T5, Galectin-4; assay: Inhibition of N-terminal human galectin-4 by competitive fluorescence polarization assay
[25] = molecular target: T7, Galectin-3 (Mus musculus, UniProt P16110); assay: Binding affinity to mouse galectin-3 assessed as dissociation constant by fluorescein probe based fluorescence polarization assay
[26] = AUC (infinity) in C57BL/6 mouse at 30 mg/kg, po measured for 24 hrs by HPLC analysis; assay type: ADME, organism-based; details: in vivo
[27] = system: Jurkat; assay: Inhibition of apoptosis in galectin-3-induced human Jurkat cells measured after 16 hrs by caspase-3/7 green fluorescence based analysis
[28] = system: Jurkat; assay: Inhibition of apoptosis in galectin-1-induced human Jurkat cells measured after 16 hrs by caspase-3/7 green fluorescence based analysis
[29] = molecular target: T6, Galectin-8; assay: Inhibition of C-terminal human galectin-8 by competitive fluorescence polarization assay
[30] = Clearance in C57BL/6 mouse at 1 mg/kg, iv measured for 24 hrs by HPLC analysis; assay type: ADME, organism-based; details: in vivo
[31] = Unbound fraction in mouse plasma at 1 uM incubated for 5 hrs by equilibrium dialysis method; assay type: ADME, cell-free
[32] = molecular target: T7, Galectin-3; assay: Binding affinity to CM3 chip-immobilized full-length mouse galectin-3 assessed as dissociation constant by SPR analysis
[33] = molecular target: Galectin-7 (Homo sapiens, UniProt P47929); assay: Inhibition of human galectin-7 by competitive fluorescence polarization assay
[34] = Oral bioavailability in C57BL/6 mouse at 30 mg/kg measured for 24 hrs by HPLC analysis; assay type: ADME, organism-based; details: in vivo
[35] = Unbound fraction in human plasma at 1 uM incubated for 5 hrs by equilibrium dialysis method; assay type: ADME, cell-free
[36] = Tmax in C57BL/6 mouse at 30 mg/kg, po measured for 24 hrs by HPLC analysis; assay type: ADME, organism-based; details: in vivo

T2 sequence (P16045 whole entry): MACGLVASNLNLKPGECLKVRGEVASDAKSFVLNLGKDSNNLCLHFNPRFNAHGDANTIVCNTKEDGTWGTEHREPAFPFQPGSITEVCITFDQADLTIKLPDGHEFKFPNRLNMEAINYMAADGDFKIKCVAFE
T1 sequence (P09382 whole entry): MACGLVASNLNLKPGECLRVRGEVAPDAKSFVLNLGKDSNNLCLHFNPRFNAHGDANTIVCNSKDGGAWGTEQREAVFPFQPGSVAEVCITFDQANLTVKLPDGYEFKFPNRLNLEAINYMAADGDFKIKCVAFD
T4 sequence (P17931 whole entry): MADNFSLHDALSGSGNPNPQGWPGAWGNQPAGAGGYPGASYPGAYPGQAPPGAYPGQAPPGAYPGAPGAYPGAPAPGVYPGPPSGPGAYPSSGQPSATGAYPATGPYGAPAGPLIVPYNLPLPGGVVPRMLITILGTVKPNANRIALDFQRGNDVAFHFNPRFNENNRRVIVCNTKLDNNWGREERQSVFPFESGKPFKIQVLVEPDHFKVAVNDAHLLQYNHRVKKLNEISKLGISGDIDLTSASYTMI
T7 sequence (P16110 whole entry): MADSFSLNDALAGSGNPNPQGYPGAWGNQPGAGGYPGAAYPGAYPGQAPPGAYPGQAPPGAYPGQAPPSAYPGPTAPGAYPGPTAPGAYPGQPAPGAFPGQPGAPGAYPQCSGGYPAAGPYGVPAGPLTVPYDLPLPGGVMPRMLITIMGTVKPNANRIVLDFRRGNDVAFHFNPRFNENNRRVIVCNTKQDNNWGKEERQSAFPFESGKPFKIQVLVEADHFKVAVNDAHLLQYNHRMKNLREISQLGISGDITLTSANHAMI
T3 sequence (O00182 whole entry): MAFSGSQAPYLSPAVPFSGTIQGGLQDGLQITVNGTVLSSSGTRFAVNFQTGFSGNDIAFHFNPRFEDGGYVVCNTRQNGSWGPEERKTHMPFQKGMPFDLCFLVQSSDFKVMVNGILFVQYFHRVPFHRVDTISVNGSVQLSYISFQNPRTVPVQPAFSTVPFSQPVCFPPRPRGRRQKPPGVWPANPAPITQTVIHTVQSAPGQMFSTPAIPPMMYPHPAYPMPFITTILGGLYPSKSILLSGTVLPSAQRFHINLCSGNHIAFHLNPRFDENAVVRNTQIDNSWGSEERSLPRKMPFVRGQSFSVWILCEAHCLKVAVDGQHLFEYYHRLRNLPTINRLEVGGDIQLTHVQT
Chain of Galectin-7 (P47929 whole entry): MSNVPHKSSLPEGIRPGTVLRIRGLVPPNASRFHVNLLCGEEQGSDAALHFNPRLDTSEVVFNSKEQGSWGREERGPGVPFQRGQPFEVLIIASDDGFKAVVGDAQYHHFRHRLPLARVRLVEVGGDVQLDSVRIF

Compound: CO[C@@H]1[C@@H](n2cc(-c3csc(N)n3)nn2)[C@@H](O)[C@@H](CO)O[C@@H]1Sc1cc(Cl)c(F)c(Cl)c1
efflux ratio at 1.5 h, 10 µM [1]: 11
hepatocyte CLint at 2 µM [6]: 1.6 µL/min/1e6 cells
Papp B→A at 1.5 h, 10 µM [2]: 39 ×10⁻⁶ cm/s
logD at 1 h [3]: 3
Kd [7]: 91 nM
Kd [4]: 98 nM
Papp A→B at 1.5 h, 10 µM [5]: 3.5 ×10⁻⁶ cm/s
hepatocyte CLint at 2 µM [8]: 4.6 µL/min/1e6 cells

Compound: O=C(N[C@H]1[C@@H](O)[C@@H](CO)O[C@@H](S[C@@H]2O[C@H](CO)[C@H](O)[C@H](n3cc(-c4csc(O)n4)nn3)[C@H]2O)[C@@H]1O)c1ccc2c(c1)C(=O)OC21c2ccc(O)cc2Oc2cc(O)ccc21
Kd [9]: 20 nM
Kd [10]: 29 nM

Compound: CO[C@@H]1[C@@H](n2cc(-c3nccs3)nn2)[C@@H](O)[C@@H](CO)O[C@@H]1Sc1cc(Cl)c(F)c(Cl)c1
efflux ratio at 1.5 h, 10 µM [1]: 1.4
hepatocyte CLint at 2 µM [6]: < 1.5 µL/min/1e6 cells
Papp B→A at 1.5 h, 10 µM [2]: 28 ×10⁻⁶ cm/s
logD at 1 h [3]: 3.7
Kd [7]: 160 nM
Kd [4]: 145 nM
Papp A→B at 1.5 h, 10 µM [5]: 20 ×10⁻⁶ cm/s
hepatocyte CLint at 2 µM [8]: 4.4 µL/min/1e6 cells

Compound: CO[C@@H]1[C@@H](n2cc(-c3csc(O)n3)nn2)[C@@H](O)[C@@H](CO)O[C@@H]1Sc1ccc(Cl)c(Cl)c1
Activity [11]: 48%
Kd [12]: 17500 nM
Vd [13]: 0.4 L/kg
Kd [14]: 6000 nM
Activity [15]: Active
Kd [16]: 90 nM
Kd [17]: 460 nM
Cmax [18]: 19500 ng/mL
Kd [19]: 18600 nM
Kd [20]: 80 nM
Kd [21]: 20500 nM
inhibition [22]: Active
Kd [23]: 80600 nM
Kd [24]: 15000 nM
Kd [25]: 4200 nM
hepatocyte CLint at 2 µM [6]: < 1.5 µL/min/1e6 cells
AUC(0-inf) [26]: 148 µg·h/mL
IC50 [27]: > 8000 nM
Papp B→A at 1.5 h, 10 µM [2]: 48 ×10⁻⁶ cm/s
logD at 1 h [3]: 3.2
IC50 [28]: 850 nM
Kd [29]: 92400 nM
Kd [7]: 72 nM
clearance [30]: 3.7 mL/min/kg
fraction unbound at 5 h, 1 µM [31]: 0.007
Kd [32]: 8200 nM
Kd [33]: 92700 nM
bioavailability [34]: > 99.9%
fraction unbound at 5 h, 1 µM [35]: 0.005
Tmax [36]: 2 h
Papp A→B at 1.5 h, 10 µM [5]: 4 ×10⁻⁶ cm/s
hepatocyte CLint at 2 µM [8]: < 1.5 µL/min/1e6 cells

Compound: Nc1csc(-c2cn([C@@H]3[C@@H](O)[C@@H](Sc4cc(Cl)c(F)c(Cl)c4)O[C@H](CO)[C@@H]3O)nn2)n1
efflux ratio at 1.5 h, 10 µM [1]: 14
Papp B→A at 1.5 h, 10 µM [2]: 42 ×10⁻⁶ cm/s
logD at 1 h [3]: 2.5
Kd [4]: 620 nM
Papp A→B at 1.5 h, 10 µM [5]: 3.1 ×10⁻⁶ cm/s

Results, then the compound that gave them:

efflux ratio at 1.5 h, 10 µM [1]: > 192
Papp B→A at 1.5 h, 10 µM [2]: 46 ×10⁻⁶ cm/s
logD at 1 h [3]: 2.9
Kd [4]: 1360 nM
Papp A→B at 1.5 h, 10 µM [5]: < 0.24 ×10⁻⁶ cm/s
Compound: CNc1nc(-c2cn([C@@H]3[C@@H](O)[C@@H](Sc4cc(Cl)c(F)c(Cl)c4)O[C@H](CO)[C@@H]3O)nn2)cs1

efflux ratio at 1.5 h, 10 µM [1]: 117
Papp B→A at 1.5 h, 10 µM [2]: 35 ×10⁻⁶ cm/s
logD at 1 h [3]: 2.8
Kd [4]: 80 nM
Papp A→B at 1.5 h, 10 µM [5]: 0.3 ×10⁻⁶ cm/s
Compound: OC[C@H]1O[C@H](Sc2cc(Cl)c(F)c(Cl)c2)[C@H](O)[C@@H](n2cc(-c3csc(O)n3)nn2)[C@H]1O

efflux ratio at 1.5 h, 10 µM [1]: 5
Papp B→A at 1.5 h, 10 µM [2]: 61 ×10⁻⁶ cm/s
Kd [4]: 1580 nM
Papp A→B at 1.5 h, 10 µM [5]: 12 ×10⁻⁶ cm/s
Compound: COc1nc(-c2cn([C@@H]3[C@@H](O)[C@@H](Sc4cc(Cl)c(F)c(Cl)c4)O[C@H](CO)[C@@H]3O)nn2)cs1
